Results on one compound are retold here after patent US5608095A, “Alkyl-4-silyl-phenols and esters thereof as antiatherosclerotic agents” (Hoechst Marion Roussel, Inc., priority 1996, dated 1997).

Read-outs that look alike come from different tables or passages of the source.

The test system of series [1] is serum cholesterol, LDL, HDL, triglycerides. Put plainly: Serum lipids and lipoprotein cholesterol in cholesterol-fed female New Zealand White rabbits. As to conditions: Oryctolagus cuniculus, po, 168 h, rabbit serum, diet 0.4%, 7 days. Type of series: in vivo. The method, then: (§1) Five independent experiments were performed in the following manner. […] Female New Zealand White rabbits (Hazelton, ~2.0-2.3 kg) were fed 0.2% cholesterol enriched rabbit chow (Purina #5322) with or without 0.4% MDL compound (except, MDL 108,804 at 0.26% and MDL 103,491 repeated at 0.6%). The MDL compounds were solubilized in 100% ethanol. MDL 108,208 was not soluble in 100% ethanol, but it was soluble in diethyl ether:ethanol (3:2 by volume). The chow was sprayed with the MDL mixtures and allowed to dry overnight in a chemical fume hood. Control chow was sprayed with ethanol. Rabbits were fed 100 grams food per day for 7 days (0.6% MDL 103,491 were fed for 14 days); water was available ad libitum. On day 7, rabbits (fasted overnight) were bled (~2 mL) from marginal ear vein; 0.6% MDL 103,491 treated rabbits were tested on day 14. They were euthanized by carbon dioxide overdose. The total body and liver weights were recorded in grams. Food consumption was recorded as grams.cndot.day^-1 .cndot.rabbit^-1. Aliquots of fresh serum were used for clinical chemistries, lipoprotein cholesterol determination, thiobarbituric acid reactive substances (TBARS) and compound and metabolite concentrations in serum. Livers (~5 gram aliquots) were frozen at -20° C. for compound and metabolite concentration determination at a later time.
Blood was allowed to clot at room temperature for 30 minutes. Serum was obtained after centrifugation for 10 min at 5° C. at 3000 rpm in a Beckman GPKR centrifuge with a GH rotor. Fresh serum was analyzed by a COBAS MIRA autoanalyzer (Roche Diagnostics) using Roche diagnostic reagents for total cholesterol (CHOL, kit #44334) and triglyceride (TG, kit #44120). Cholesterol and triglycerides were calculated as mg/dL.
Lipoprotein fractions (very low density lipoprotein, VLDL, low density lipoprotein, LDL and high density lipoprotein, HDL) were separated on a Sepharose 6HR column (1×30 cm, Pharmacia) attached to a Waters Powerline HPLC system. Fifty μL of serum were injected onto the column and eluted with phosphate buffered saline, pH 7.4, at a flow rate of 0.5 mL/min. Cholesterol reagent (Roche Diagnostics, kit #44334, diluted with 20 mL water and then with 20 mL of 0.9% saline) was added at 0.2 mL/min to the post column eluant and incubated in a knitted PFTE Kratos reaction coil (Applied Biosystems) at 37° C. for 5 min. Absorbance was measured at 500 nm. The lipoprotein subfractions were quantitated as follows: [formula]

The nature of series [2]: Food consumption, body and liver weight in cholesterol-fed rabbits. Type of series: in vivo, female New Zealand White rabbits. As to conditions: diet 0.4%, 7 days. As to the method:
as §1

Series [3] can be described thus: Solubility in solvent for spraying on chow. Format: physicochemical. The method, then: as §1
Series [4] deals with oxidation of serum lipids. Kind of series: TBARS assay, serum of cholesterol-fed rabbits. Type of series: in vivo, female New Zealand White rabbits. As to conditions: Oryctolagus cuniculus, po, 168 h; rabbit serum, diet 0.4%, 7 days; read-out: TBARS, percent of control. As to the method:
as §1
TBARS are a qualitative indication of the oxidation of lipids in a sample. In this assay the oxidation of serum lipids is initiated with CuSO4, resulting in the formation of aldehydes, such as malondialdehyde (MDA). Upon incubation with thiobarbituric acid, the absorbance of the aldehydes can be detected at 530-540 nm. TBARS values which are lower than control serum values indicate the relative ability of a compound to inhibit the oxidation. TBARS were measured as follows: 50 μL of serum were mixed with 50 μL of 0.9% saline and 400 μL of a 5 mM CuSO4 solution and incubated at 37° C. for 5 hr. The reactions were stopped by addition of 1.0 mL of 20% trichloroacetic acid. Then 1.0 mL of 0.67% thiobarbituric acid in 0.05N sodium hydroxide was added, mixed, and the samples incubated for 30 min at 90° C. Samples were centrifuged briefly to pellet undissolved material, and the supernatants were transferred to a 96-well microtiter plate. Absorbances were measured at 540 nm using a Biotek model EL311 microplate reader. The nmoles of MDA produced were calculated from a standard curve of 0 to 10 nmoles of MDA prepared from malonaldehyde bis(dimethylacetal). Serum samples from treated rabbits were compared to serum samples from control rabbits that received no MDL compound.

The nature of series [5]: HPLC quantitation of compound and metabolite concentration in rabbit serum and liver. Type of series: in vivo, female New Zealand White rabbits. As to conditions: diet 0.4%, 7 days. As to the method:
as §1
Serum and liver concentrations of parent compounds and the metabolites, bisphenol and diphenoquinone, were determined by reverse phase HPLC using a Waters 990 Powerline system. Livers (1 gram) were homogenized with 5.0 mL PBS, pH 7.4, using a Polytron tissue homogenizer at setting 5 for 20-30 seconds. Serum or liver homogenates were extracted as follows: 100 μL of either serum or homogenate were added to 2.0 mL diethyl ether:ethanol (3:1) while vortexing the tube. The sample tubes were capped and centrifuged for 10 min at 5° C. at 3500 rpm in a Beckman GPKR centrifuge with a GH 3.7 rotor. The supernatants were transferred to clean tubes and dried under N2. Samples were reconstituted with 200 μL of acetonitrile:hexane:0.1M ammonium acetate (90:6.5:3.5, by vol.). Then, 100 μL were injected onto a Waters Deltapak C18-300 Å column, and eluted with an 83% acetonitrile:17% water mobile phase at a flow rate of 1.5 mL/min. Absrobances at the wavelengths of 240, 254, and 420 nm were recorded. Compound concentrations were calculated from known quantities of authentic parent compounds after correction for recovery; the range of recovery from spiked samples was 40 to 100%. The lowest detectable limit for this class of compounds was ~0.5 μg/mL. Concentrations were calculated as μg/mL of serum and μg/g of liver.

As to `COc1ccc([Si](C)(COc2cc(C(C)(C)C)c(O)c(C(C)(C)C)c2)c2ccc(OC)cc2)cc1` [MDL 108,208], the response vs control in vivo at 0.4 % worked out at 97% in series [1] (read-out: HDL cholesterol, percent of control); 117% in series [1] (read-out: LDL cholesterol, percent of control); 107% in series [1] (read-out: TRIG (triglycerides), percent of control); 109% in series [1] (read-out: chol tot. (total cholesterol), percent of control); 89% in series [4]. In series [2], the “food (grams eaten per day per rabbit), percent of control” value turned out to be 100%. Also, the “body wt., percent of control” value in series [2] (rabbit) turned out to be 97%. Besides, the “lw/bw (liver weight/body weight), percent of control” value in series [2] (rabbit) came to 103%. Also, the “solubility in 100% ethanol” value in series [3] (100% ethanol) is recorded as “not soluble”. In series [3] (diethyl ether:ethanol (3:2 by volume)), the “solubility in diethyl ether:ethanol” value was “soluble”. Besides, the “Liver Parent = parent compound concentration” value in series [5] (rabbit liver) is 0 µg/g. Moreover, the “Serum Parent = parent compound concentration” value in series [5] (rabbit serum) was 0 µg/mL.
